Assay in all cases: inhibition of tumour cell growth, NCI panel, 48 h
Experiment [1] has as its system HOP-18.
In experiment [2] the test system is LXFL 529.
Experiment [3] has as its system DMS-114.
Experiment [4] has as its system DMS-273.
The test system of experiment [5] is KM-20L2.
Experiment [6] relates to M19-MEL.
For experiment [7], the system named is SNB-78.
Experiment [8] relates to XF498.
Experiment [9] deals with RXF 631.

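Values below derive from 48-hour exposures of cells grown in 96-well plates, with endpoints linearly interpolated between the two concentrations bracketing the appropriate inhibition level. GI50 = concentration required for 50% inhibition of growth.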 Activity calls are given as the source filed them. Cut-off read from the data, not from the text of the source: active = GI50 up to about 1.1 µM and inactive = higher.

Turning to `Cc1nc(N(CCO)CCO)c2sc(=S)n(-c3ccccc3)c2n1`, the GI50 in experiment [1] and in experiment [2] was > 100 µM (inactive) each time.
In the case of `Cc1nc2ccccc2c(=O)n1CC(=O)O`, the GI50 in [3], in [4], in [1], in experiment [5], in experiment [6] and in experiment [7] was > 100 µM (inactive) each time. In addition, the GI50 in experiment [8] was > 100 µM (inactive).
Regarding `Nc1ccc2c(c1)C1=NNC(=O)CC1C2` (stereo unspecified), the GI50 in [3] is > 100 µM (inactive); in [4], > 100 µM (inactive); in [1], > 77.6 µM (inactive); in [5], > 100 µM (inactive); in experiment [6], > 100 µM (inactive); in experiment [7] it was > 100 µM (inactive). The GI50 in experiment [8] was > 100 µM (inactive).
For `Cc1nc2c(nc1Cl)nc(Oc1ccc(Cl)cc1)c1ccccc12`, the GI50 in [3] was 47.5 µM (inactive); in experiment [4], 46.5 µM (inactive); in experiment [5], > 100 µM (inactive); in experiment [2], 51.4 µM (inactive); in experiment [6], > 100 µM (inactive); in experiment [9], > 100 µM (inactive). Besides, the GI50 in experiment [7] was 59.4 µM (inactive); in [8] it was 73.3 µM (inactive).
Regarding `CC12CCC3C(CCC4CC(OC(=O)Cc5ccc(N(CCCl)CCCl)cc5)CCC43C)C1CCC(=O)N2` (stereo unspecified), the GI50 in experiment [3] is 12.8 µM (inactive); in experiment [4], 12.9 µM (inactive); in experiment [1], 17.3 µM (inactive); in [5] it was 17.4 µM (inactive); in experiment [2], 16.2 µM (inactive); in [6], 17.2 µM (inactive). Moreover, the values for the GI50 in experiment [7] and in experiment [8] were 24.4 µM (inactive) and 16.5 µM (inactive), respectively.
For `O=C1C2c3[nH]c4ccccc4c3C3CCSCC3C2C(=O)N1c1ccccc1` (stereo unspecified), the GI50 in [4], in experiment [5], in experiment [2], in experiment [6], in [7] and in experiment [8] was > 100 µM (inactive) throughout.
Take `O=C(c1ccccc1)c1cc(Cl)ccc1NCn1nnc2ccccc21`: the GI50 in [3] is 31.5 µM (inactive); in experiment [4], 39.1 µM (inactive); in experiment [1] it was > 100 µM (inactive); in experiment [5] it was 60.4 µM (inactive); in experiment [2], 98.9 µM (inactive); in experiment [6], 81.7 µM (inactive). Also, the GI50 in [8] was > 100 µM (inactive).
On to `CC(C)NC(=O)OCc1nnn2c1CCC2`, for which the GI50 in [5], in experiment [2], in experiment [6], in experiment [7] and in experiment [8] was > 100 µM (inactive) each time.
As to `O=S(O)CCCSSSCCCS(=O)O`, the GI50 in experiment [3], in [5], in experiment [2], in experiment [6], in [9] and in [7] was > 100 µM (inactive) throughout. In addition, the GI50 in experiment [8] was > 100 µM (inactive).
With `C=C1CC(OC)(C(OC)C(=O)N[C@H]2OCO[C@H]3C2O[C@H](C[C@@H](COC)OC)C(C)(C)C3OC)O[C@H](C)[C@@H]1C` (stereo partly specified), the GI50 is 1.22 µM (inactive) in [3]; 0.875 µM (active) in experiment [4]; 2.08 µM (inactive) in experiment [1]; 0.931 µM (active) in [5]; 0.778 µM (active) in experiment [6]; 1.11 µM (active) in experiment [7]. The GI50 in [8] is 0.604 µM (active).
As to `CC(=O)NC1=C(C)C(=O)c2c(nc3n2CCC3OC(=O)c2ccccc2)C1=O` (stereo unspecified), the GI50 in experiment [3] was 0.805 µM (active); in [4], 2.07 µM (inactive); in experiment [2], 1.56 µM (inactive); in experiment [6], 1.69 µM (inactive); in experiment [7], 2.71 µM (inactive).
For `CC(=O)O[C@H]1CC[C@@]2(C)[C@H](CC[C@@H]3[C@@H]2CC[C@]2(C)[C@@H](c4ccc(=O)oc4)C[C@H]4O[C@]342)C1`, the GI50 was 0.119 µM (active) in experiment [3]; 0.458 µM (active) in [4]; 0.423 µM (active) in [1]; 1.38 µM (inactive) in experiment [5]; 1.05 µM (active) in experiment [6]; 0.404 µM (active) in [7]. The GI50 in [8] was 1.3 µM (inactive).
